Patent US6602865B1, “Pyridazino(4,5-b)(1,5)oxazepinone, -thiazepinone and -diazepinone compounds” (IVAX Drug Research Institute, Ltd., priority 1998, dated 2003)

Columns and labels:
AMPA = assay: AMPA-induced spreading depression of chick retina; conditions: 20 μM
Experimental: The AMPA antagonistic effect of the compounds was also tested on spreading depression of chick retina (Sheardown, M. J.: Brain Res., 1993, 607, 189) in a concentration of 20 μM.

[1] = test system: scopolamine-induced memory-deficit in rats; assay: Passive avoidance test, scopolamine-induced memory deficit in rats; format: in vivo, rat; conditions: oral dose 50 mg/kg
Experimental: The memory-enhancing effect of the compounds according to the invention was measured by counter-balancing the scopolamine-induced memory-deficit in rats, with oral doses of 50 mg/kg, in the passive avoidance test published by Cumin, R. et al. [Psychopharmacology, 78, 104 (1982)].

| Structure (SMILES) | Antagonistic effect on AMPA-induced spreading depression (%) (AMPA) | Memory improvement compared to amnesic control (%) [1] |
| --- | --- | --- |
| O=c1c2c(cnn1-c1ccccc1)C(Cc1ccccc1)NCCS2 (stereo not shown) [Example 13, 5-Benzyl-8-phenyl-2,3,4,5-tetrahydro-9(8H)-pyridazino[4,5-b]-[1,5]thiazepinone] | 48% | – |
| O=c1c2c(cnn1CC=Cc1ccccc1)N(Cc1ccccc1)CCCO2 [Example 7, 5-Benzyl-8-cynnamyl-2,3,4,5-tetrahydro-9(8H)-pyridazino[4,5-b][1,5]oxazepinone] | 16% | 250% |
| Cn1ncc2c(c1=O)OCCNC2Cc1ccccc1 (stereo not shown) [Example 4, 5-Benzyl-8-methyl-2,3,4,5-tetrahydro-9(8H)-pyridazino[4,5-b][1,5]oxazepinone] | 17% | – |
| Cn1ncc2c(c1=O)SCCNC2C(=O)c1ccccc1 (stereo not shown) [Example 3, 5-Benzoyl-8-methyl-2,3,4,5-tetrahydro-9(8H)-pyridazino[4,5-b][1,5]thiazepinone] | 10% | – |
| Cn1ncc2c(c1=O)SCCNC2Cc1ccc(Cl)cc1 (stereo not shown) [Example 12, 5-(4-Chlorobenzyl)-8-methyl-2,3,4,5-tetrahydro-9(8H)-pyridazino[4,5-b]-[1,5]thiazepinone] | 32% | – |
| Cn1ncc2c(c1=O)SCCNC2Cc1ccccc1 (stereo not shown) [Example 11, 5-Benzyl-8-methyl-2,3,4,5-tetrahydro-9(8H)-pyridazino[4,5-b][1,5]thiazepinone] | 28% | – |
